In patent US20120035187A1 (priority 2009, published 2012):
Marks after values point to notes of the source that are not given here.

Legend:
[1] = system: PC12-HS cells; assay: Cytotoxicity by amyloid β fragment, cell survival (Evaluation C); format: cell-based; details: for Cell survival percentage (%): PC12-HS cells + amyloid β fragment
Experimental: A plurality of peptide fragments (called “AMYLOID β FRAGMENT” commercialized by AnaSpec, Inc., CA, USA, each peptide having the amino acid sequence of SEQ ID NO:1), which have an amino acid sequence positioning from 25th to 35th from the N-terminus of amyloid R peptide with human origin and have been recognized as a main factor of neurocyte death in Alzheimer's disease, were diluted with phosphate buffered saline (PBS) to give a concentration of 2 mM, and used after being aged at 37° C. for six hours to coagulate them to increase their cytotoxicity before use. […] Viability (%) of cells in each well was determined and shown in Table 1 by calculating a relative value when the fluorescent intensity of the control was regarded as 100%. While, the supernatant of cell culture, which had been cultured under the same conditions as above, was removed, and the resulting cells were fixed by the addition of 1% by volume of glutaraldehyde, which had been prepared by diluting with PBS, in a volume of 100 μl/well for 30 min. Thereafter, the cells were stained with […] Hoechst 33258 dye commercialized by SIGMA Corporation, Tokyo, Japan, for five min, observed at a magnitude corresponding to a visual filed containing about 100 cells under a phase contrast microscope and a fluorescent microscope, and counted. The occupied percentage (%) of cells with apoptosis against the total cells in one visual field was calculated and the data was also shown in Table 1. The judgment of cells with apoptosis was made with an index of fragmentation of cell nuclei and chromatin aggregation within the nuclei.
Then, the effect of the above-compounds' concentrations on the cytotoxicity by amyloid β fragment was further investigated. The above 6-compounds and NK-4 were used as test samples, and the protective effects of these compounds against cytotoxicity by amyloid β fragment were evaluated by the same conditions as used in Evaluation C in Experiment 3, except for adding each compound to a well inoculated with PC12-HS cells to give a final concentration as shown in Table 7.

[2] = system: primary neuron (neuron, astrocyte and microglia) prepared from brain cortex of a rat fetus; assay: Hydrogen peroxide disorder in primary neuron; format: cell-based; details: concrete data not shown
Description: Though concrete data is not shown, using primary neuron (neuron, astrocyte and microglia) prepared from brain cortex of a rat fetus in place of PC12-HS cells, the influence of NK-4, NK-26, NK-234, NK-19 and NK-150 on amyloid β fragment disorder and hydrogen peroxide disorder was investigated.

[3] = system: ICR mice injected with amyloid β fragment; assay: Passive avoidance test, mouse injected with amyloid β fragment; format: in vivo; details: for passive avoidance test (in words): mice injected with amyloid β fragment, vs amyloid β fragment alone; for Passive avoidance reaction: mouse administered with amyloid β fragment
Experimental: One hundred of ICR mice (male, five weeks of age, body weight of 25 to 30 g, commercialized by Charles Liver Laboratories Japan Inc., Kanagawa, Japan) were randomly divided into 10 groups, each consisting 10 heads, and raised separately until the experiment was terminated. Mice, which had been anesthetized with chloral hydrate (administered into the abdominal cavity in an amount of 350 mg/kg body weight, commercialized by SIGMA Corporation, Tokyo, Japan), were fixed at their dorsal decubitis parts, incised along their medial heads, and after confirming born suture, 9 nmol/6 μl/mouse of a solution of amyloid β fragment (β-Amyloid25-35), represented by amino acid sequence of SEQ ID No.: 1, was injected into their brain ventricles by puncturing at 1.0-mm left side and 0.5-mm backside from bregmas with a depth of 3 mm (the administration method is referred to “Brain Research”, Vol. 706, pp. 181-193 (1996)). A micro syringe with an […] stainless needle (3 mm length) was used for injection. The injection site was determined by confirming the staining at right-and-left lateral ventricles of the frontal section, dorsal third ventricle, and ventral third ventricle by injecting an Evans' Blue solution (0.3 μg/0.3 μl) in place of the solution of amyloid β fragment. The scalps were sutured after injection, any one of the compounds was administered intraperitoneally once a day over 13 days, and the behavioral score was determined by the method described below.
The captioned test is the one for evaluating animals' avoidance behavior to the once experienced aversive stimulus (electric stimulus) as an index of memory. In this experiment, step-through test was selected as a passive avoidance test, which uses the nature of mouse who favors dark room. Using an apparatus having a bright room and a dark room connected via a door, a mouse was placed in the bright room, and measured a time required for moving into the dark room as an index of memory. The passive avoidance test was performed on 9 to 12 days after the injection of amyloid β fragment into the ventricle. On the 9th day after the administration, the mouse was placed in the bright room (1,000 lux, 30-cm in depth, 30-cm in width and 15-cm in height) for a minute, and then placed in the dark room (30-cm in depth, 30-cm in width and 15-cm in height) for two minutes to be acclimatized. On the 10th day after the administration, the mouse was further acclimatized similarly as above. On the 11th day after the administration, the mouse was placed in the center of the bright room, and when the mouse moved into the dark room, the door between the rooms was immediately closed and the electric stimulus (0.8 mA, for a second) was given to the mouse. After 24 hours (on the 12th day after the administration), the mouse was placed in the center of the bright room as had been placed in the previous day, and the time required for moving into the dark room was measured as a passive avoidance reaction. When the mouse memorized the aversive electric stimulus, the passive avoidance reaction was elongated.

[4] = system: microglia; assay: NO production from microglia in the presence of LPS; format: cell-based, rat; details: concrete data not shown
[5] = final concentration of compound 12.5 ng/ml
[6] = final concentration of compound 50 ng/ml
[7] = final concentration of compound 200 ng/ml
[8] = final concentration of compound 800 ng/ml
[9] = 50 μg/kg body weight i.p. once a day
[10] = 500 μg/kg body weight i.p. once a day

| SMILES | Cell survival percentage (%) [1, 5] | Cell survival percentage (%) [1, 6] | Cell survival percentage (%) [1, 7] | Cell survival percentage (%) [1, 8] | suppressing hydrogen peroxide disorder [2] | passive avoidance test (in words) [3, 9] | passive avoidance test (in words) [3, 10] | Passive avoidance reaction ([3]; dose 5 μg/kg body weight) | Passive avoidance reaction ([3]; dose 50 μg/kg body weight) | Passive avoidance reaction ([3]; dose 500 μg/kg body weight) | suppressing NO production from microglia [4] | Survibal percentage of cells when admixed with cytotoxic factor (%) Amyloid β fragment ([1]; NK-4 200 ng/ml) | Survibal percentage of cells when admixed with cytotoxic factor (%) Amyloid β fragment ([1]; NK-4 1000 ng/ml) | Survibal percentage of cells when admixed with cytotoxic factor (%) Amyloid β fragment ([1]; NK-4 5000 ng/ml) | minimum concentration exerting protection action against injury through amyloid β fragment ([1]; PC12-HS cells) | Survibal percentage of cells when admixed with cytotoxic factor (%) Amyloid β fragment ([1]; PC12-HS cells, 50 μM amyloid β fragment, 3 days, NK-4 40 ng/ml) |
| --- | --- | --- | --- | --- | --- | --- | --- | --- | --- | --- | --- | --- | --- | --- | --- | --- |
| CC[n+]1ccccc1/C=C/c1ccc(N(C)C)cc1 [NK-557] | 36 ± 3% | 114 ± 9% | 94 ± 11% | 73 ± 1% | – | – | – | – | – | – | – | – | – | – | – | – |
| CN(C)c1ccc(/C=C/c2oc3ccccc3[n+]2C)cc1 [NK-528] | 40 ± 9% | 36 ± 4% | 50 ± 10% | 111 ± 7% | – | – | – | – | – | – | – | – | – | – | – | – |
| CCN1/C(=C/C=C(/C=C/c2sc3ccccc3[n+]2CC)c2sc3ccccc3[n+]2CC)Sc2ccccc21.[I-].[I-] [NK-100] | 47 ± 2% | 88 ± 12% | 60 ± 5% | 44 ± 4% | – | – | – | – | – | – | – | – | – | – | – | – |
| CCCCN1C=C/C(=C/C=C(/C=C/c2cc[n+](CCCC)c3ccccc23)c2cc[n+](CCCC)c3ccccc23)c2ccccc21 [NK-26] | – | – | – | – | actions of suppressing | significant improvement | significant improvement | 84 ± 25 s | 160 ± 14 s | 144 ± 13 s | actions of suppressing NO production | – | – | – | – | – |
| CCCN1C=CC(=CC=C(C=Cc2cc[n+](CCC)c3ccccc23)c2cc[n+](CCC)c3ccccc23)c2ccccc21.[I-].[I-] [NK-234] | – | – | – | – | actions of suppressing | – | significant improvement | – | – | 166 ± 8 s | actions of suppressing NO production | – | – | – | – | – |
| CCN1C=CC(=CC=C(C=Cc2cc[n+](CC)c3ccccc23)c2cc[n+](CC)c3ccccc23)c2ccccc21.[I-].[I-] [NK-4] | 34 ± 1% | 69 ± 7% | 122 ± 32% | 89 ± 4% | actions of suppressing | significant improvement | significant improvement | – | 135 ± 24 s | 164 ± 16 s | actions of suppressing NO production | 129 ** % | 97 ** % | 97 ** % | 40 ng/mL | 89 ** % |
| COc1ccc2oc(/C=C/c3ccc(N(C)C)cc3)[n+](C)c2c1 [NK-1516] | 34 ± 5% | 29 ± 5% | 31 ± 3% | 70 ± 11% | – | – | – | – | – | – | – | – | – | – | – | – |
